# Experimental data reported in US20240156800A1, “EP300 DEGRADER AND USES THEREOF IN NEUROBLASTOMA” (DANA-FARBER CANCER INSTITUTE, INC., priority 2021, published 2024).
# Where two headings read alike, the source gives them in different places.
# Key:
# [1] = system: pro- and anti-apoptotic mRNA transcripts; assay: ERCC spike-in RNA-seq of treated Kelly cells; format: cell-based, human; conditions: 500 nM, 24 h
# Method: For in vitro analyses, total RNA was extracted from control […] or JQAD1 treated Kelly cells using TRIzolTM reagent (Ambion). Prior to extraction, exogenous spike-in of synthetic External RNA Control Consortium (ERCC) RNA controls were added based on cell number (Ambion). Samples were treated with RNAse-free DNAse I and spin purified using the Qiagen® RNeasy Kit (Qiagen®). Purified RNA samples were subjected to library construction with poly-adenylation preparation and sequencing using the Illumina NextSeq® 500 (paired end, 75bp reads). RNA-seq reads were aligned to a reference index containing the sequences of the hg19 revision of the human reference genome and the ERCC spike-in probes using hisat 2.1.0. Expression was quantified using sorted BAMs, a gene reference built using ERCC sizes and RefSeq genes downloaded Jul. 15, 2017, and htseq-count with parameters -I gene_id- stranded=reverse -f bam -m intersection-strict. Read counts were converted to transcripts per million (TPM) and used for cell number-normalization. The expression of all RefSeq genes and ERCC probes was floored at 0.01 and a pseudocount of 0.1 was added to all entries. Values were normalized by equilibrating the expression of the ERCC probes among experiments using normalize.loess from the affy R package. The ERCC-normalized expression of each gene after 24 h of either […] or JQAD1 treatment was compared against its expression in dimethyl sulfoxide (DMSO) treated samples to create two-fold changes.
# [2] = Pharmacokinetic analysis after a single intraperitoneal dose in CD1 mice; format: in vivo, mouse; conditions: 10 mg/Kg single IP dose, murine serum
# Method: For toxicity studies, four female CD1 mice (Charles River Laboratories) were injected intraperitoneally (IP) with single doses of 10 mg/Kg (R,S)-JQAD1 solubilized in 10% hydroxypropyl β-cyclodextrin (Sigma-Aldrich®) in sterile water. Following injection, blood concentration of (R,S)-JQAD1 was measured by serial measurements of animal serum at time points out to 24 h, by liquid chromatography with tandem mass spectrometry (LC-MS/MS) analysis. Pharmacokinetics were performed at ChemPartner in Shanghai, China, using LC-MS/MS method and pharmacokinetics parameters (Tmax, Cmax, T1/2, AUC, etc.) calculated with WinNonlin® V 6.2 statistics software (Pharsight Corporation) using a noncompartmental model. For maximally tolerated dose (MTD) testing, six female CD1 mice were treated with daily IP doses of (R,S)-JQAD1 at 10, 20, or 40 mg/kg. Animals were monitored for animal weight, grooming and behavior daily without noted effects. For MTD testing in humanized CRBN knockin (Balb/c CRBN^ILE391VAL) (Jackson Laboratories), 6 mice per treatment group were treated with either vehicle control or (R,S)-JQAD1 at 40 mg/kg/day by IP injection. Animal weights, behavior and grooming were monitored daily, for a total of 21 days. At day 14, three mice per treatment group were sacrificed and tissues fixed for immunohistochemistry. Blood samples were obtained by retro-orbital puncture and blood analyzed at the Small Animal Imaging Facility at Beth Israel Deaconess Medical Center (Boston, MA), on a Hemavet® 9500FS (Drew Scientific) for blood counts, creatinine, AST, ALT, ALP, GGTP, and BUN measurements.
# H3K27ac = H3K27ac ChIP-seq with Drosophila spike-in (ChIP-RX) in Kelly cells; format: cell-based, human; conditions: 500 nM
# Method: ChIP-seq was performed as previously described for cell lines (Durbin et al. Nat. Genet. 50:1240-6 (2018)). The following antibodies were used for ChIP: EP300 (Abcam, ab10485), CBP (#7389, Cell Signaling Technology®), TFAP2β (#2509, Cell Signaling Technology®), ASCL1 (sc-374104, Santa Cruz Biotechnology) and H3K27ac (Abcam ab4729). For each ChIP, 10 μg of antibody was added to 3 ml of sonicated nuclear extract. Illumina® sequencing, library construction, and ChIP-seq analysis methods were performed as described in Mansour et al. Science 346, 1373-7 (2014) and Sanda et al. Cancer Cell 22:209-21 (2012). Remaining ChIP-seq and assay for transposase-accessible chromatin (ATAC)-sequencing data were extracted from previously published datasets (GSE120074, GSE94822, GSE65664) available through the GEO portal. For experiments involving analysis of quantitative changes in H3K27ac, pellets of neuroblastoma cells were externally spiked in with similarly fixed and processed S2 cells at 1:10 ratio, prior to sonication.
# ChIP-RX reads from Kelly cells treated with 500 nM JQAD1 were aligned in multiple steps. Reads were aligned to the dm6 revision of the D. melanogaster reference genome with -k 1 —chunkmbs 256—best to identify spiked-in DNA. Counts of fly reads were determined by counting unique read names in the aligned read file. Remaining non-fly reads were aligned to the hg19 revision of the human reference genome with parameters -k 2 -m 2 -chunkmbs 256 -best -175. Visualization files were constructed using macs 1.4 with parameters -w -S -space=50 -nomodel -shiftsize=200 to generate wiggle files, which were subsequently normalized by the millions of fly-mapped reads in the corresponding sample.
# H3K27ac ChIP-RX read coverage of stitched enhancers was quantified using bamToGFF with parameter -t TRUE and divided by the millions of mapped reads, from which read-per-million values from the corresponding input experiment was subtracted. These values were used to create fold-changes during the treatment time-course.
structure (smiles),measurement,setting,value
"C[C@H](N(Cc1ccc(F)cc1)C(=O)CN1C(=O)O[C@@]2(CCc3cc(NC(=O)CCCCCCCCCCCNc4ccc5c(c4)C(=O)N(C4CCC(=O)NC4=O)C5=O)ccc32)C1=O)C(F)(F)F (stereo partly drawn) [JQAD1, 12-((2-(2,6-dioxopiperidin-3-yl)-1,3-dioxoisoindolin-5-yl)amino)-N-((R)-3′-(2-((4-fluorobenzyl)((S)-1,1,1-trifluoropropan-2-yl)amino)-2-oxoethyl)-2′,4′-dioxo-2,3-dihydrospiro[indene-1,5′-oxazolidin]-5-yl)dodecanamide]","transcript levels of BIM, BID, PUMA, BAX, BCL2 and MCL1",[1],upregulation
same,"gene set enrichment analysis, hallmark gene sets",[1]; JQAD1 versus A485,enrichment of the apoptosis hallmark gene set
same,half-life,[2],13.3 (+/−3.37) h
same,Cmax,"[2]; female, mouse",7 µM
same,half-life,"[2]; female, mouse, read-out: half-life (converted)",13.3 h
same,H3K27ac signal at 6 h versus 0 h,H3K27ac; 6 h,no consistent change in acetylation
same,H3K27ac signal genome-wide at 24 h,H3K27ac; 24 h,"general loss of H3K27ac signal genome-wide, which was most pronounced at densely acetylated super-enhancers"
same,global suppression of all enhancers (H3K27ac marked sites),H3K27ac; 24 h versus untreated,approximately 2 fold
